Patent publication US8232448B2, “Transgenic mouse with a homozygous mutation in the CMAH gene” (The Regents of the University of California, priority 2005, dated 2012)

Experiments:
[1] = system: normal human skin fibroblasts; test: Neu5Gc/ManNGc feeding experiment, normal (WT) fibroblasts, DMB-HPLC; assay type: cell-based; conditions: for percent of Neu5Gc in membrane-bound glycoconjugates: normal wild-type (WT) fibroblasts, fed 3 mM for 3 days
Description: (§1) Neu5Gc and ManNGc Feeding Experiment—Neu5Ac, Neu5Gc or ManNGc were dried, dissolved in the appropriate media supplemented with heat-inactivated human serum, sterilized using a Spin-X® (Corning Inc., Corning, N.Y.) and then added to the cells. The pH of the media containing Sia was adjusted to neutrality using sterilized 1M NaOH before starting the feeding experiment. Cells were cultured in the presence of up to 3 mM free Sia or ManNGc for 1 or 3 days at 37° C. At the end of the feeding, cells were washed with cold PBS, harvested either by scraping or with 2 mM EDTA for fibroblasts, and washed again with cold PBS prior to fractionation.
Fractionation of the Labeled Cells—Washed cell pellets were sonicated into 500 μL of 20 mM sodium phosphate buffer or 20 mM Tris-HCl, pH 7.5, using 4×15 second pulses of a sonicator cell disrupter, model Some Dismembrator (Fisher Scientific, Hampton, N.J.) at a probe setting of 3. The sonicate was centrifuged at 75×g for 15 min., and the pellet Obtained consisted primarily of nuclei and unbroken cells. The pellet contained <5% of the incorporated sialic acid as determined using a radioactive tracer (data not shown.) The supernatant was therefore considered as the “total homogenate” fraction. A portion (20%) of the “total homogenate” fraction was taken for protein quantification and Sia analysis by DMB derivatization and HPLC analysis (as discussed below.) The remainder was centrifuged at 100,000×g for 1 h. The resulting pellet, called the “membrane” fraction, was then resuspended by sonication (15 sec.) in 200 μl of sodium acetate buffer, pH 5.5. The 100,000×g supernatant, called the “soluble” fraction was adjusted to 90% ethanol using absolute ice-cold ethanol, and placed overnight at −20° C. The flocculant precipitate, which represents the “soluble protein” fraction, was washed 3 times with 90%® ice-cold ethanol and then resuspended in 200 μl of water. The supernatant fluid representing the cytosolic low molecular weight (LMW) fraction was dried and brought up in 100 μL with water prior to Sia analysis. All the Sias in these fractions were released with mild acid hydrolysis if necessary and then analyzed by HPLC after DMB derivatization. Protein quantification was performed on the total homogenate, membrane and soluble protein fractions by using the BCA protein assay kit from Pierce (Rockford, Ill.) In some experiments, the resulting data obtained for the Sia bound to the membrane fraction and to the soluble proteins were pooled and presented here as a High Molecular Weight (HMW) fraction.
Sialic Acid Release, DMB Derivatization and HPLC Analysis—The bound Sias from the total homogenate, membrane and soluble protein fractions were released using 2M acetic acid hydrolysis, 3 h. at 80° C. The released Sias, or free Sias, contained in the soluble LMW fraction were passed through a Microcon® YM-10 filter (Millipore, Bedford, Mass.) prior to DMB derivatization, which was done according to Hara et al., 1989. DMB-Sia derivatives from the different fractions were then analyzed by HPLC using a C18 column (Microsorb MV-TM 100 A, Varian, Palo Alto, Calif.) Isocratic elution was achieved using 7% methanol, 8% acetonitrile in water during 50 min. at 0.9 ml/min flow. The eluant was monitored by fluorescence.
Quantification of Sias—For all HPLC chromatograms, the quantification of Sias was done by comparison with known quantities of DMB derivatized Neu5Gc and Neu5Ac used as standards and then reported in terms of pmoles of Sia. […]

[2] = system: human LB EBV-transformed lymphoblasts; test: Neu5Gc/Neu5Ac feeding experiment, human lymphoblasts; assay type: cell-based
Description: Cell Culture—Caco-2 cells were propagated in alpha-MEM containing GLUTAMAX™ (Invitrogen, San Diego, Calif.) and a mixture of ribonucleosides and deoxyribonucleosides (Gibco/Invitrogen, San Diego, Calif.) supplemented with 20% FCS. All the fibroblast cell lines and CHO-K1 cells were cultured in the same media supplemented respectively with 15% non-heat inactivated FCS or 10% heat inactivated FCS. Chimpanzee Fred and human LB EBV-transformed lymphoblasts were cultured in RPMI-1640 (Gibco/Invitrogen, San Diego, Calif.) supplemented with 10% heat inactivated FCS or 15% human serum. All of the cultures were maintained at 37° C., 5% CO2 atmosphere. In order to deplete any remaining Neu5Gc from FCS, the cells were split and cultured prior to Neu5Gc feeding experiments for at least 4 days in alpha-MEM supplemented with an adequate percentage of heat-inactivated premium human serum instead of FCS. The cells were then maintained under the same conditions during the whole feeding experiment. The human serum was heat inactivated at 56° C. for 30 min. before use.
as §1, with “At the end of the feeding, cells were washed with cold PBS, harvested either by scraping or with 2 mM EDTA for fibroblasts, and washed again with cold PBS prior to fractionation.” left out
Fractionation of the Labeled Cells—Washed cell pellets were sonicated into 500 μL of 20 mM sodium phosphate buffer or 20 mM Tris-HCl, pH 7.5, using 4×15 second pulses of a sonicator cell disrupter, model Some Dismembrator (Fisher Scientific, Hampton, N.J.) at a probe setting of 3. […] The pellet contained <5% of the incorporated sialic acid as determined using a radioactive tracer (data not shown.) The supernatant was therefore considered as the “total homogenate” fraction. A portion (20%) of the “total homogenate” fraction was taken for protein quantification and Sia analysis by DMB derivatization and HPLC analysis (as discussed below.) The remainder was centrifuged at 100,000×g for 1 h. […] All the Sias in these fractions were released with mild acid hydrolysis if necessary and then analyzed by HPLC after DMB derivatization. Protein quantification was performed on the total homogenate, membrane and soluble protein fractions by using the BCA protein assay kit from Pierce (Rockford, Ill.) In some experiments, the resulting data obtained for the Sia bound to the membrane fraction and to the soluble proteins were pooled and presented here as a High Molecular Weight (HMW) fraction. […]

Caco-2 cells [3] = test: Competition of free Neu5Ac with free Neu5Gc for incorporation; assay type: cell-based, human; conditions: Caco-2, 3 mM Neu5Gc 3 days, in the presence of 15 mM Neu5Ac
Description: as §1, with “Cells were cultured in the presence of up to 3 mM free Sia or ManNGc for 1 or 3 days at 37° C.” left out
Fractionation of the Labeled Cells—Washed cell pellets were sonicated into 500 μL of 20 mM sodium phosphate buffer or 20 mM Tris-HCl, pH 7.5, using 4×15 second pulses of a sonicator cell disrupter, model Some Dismembrator (Fisher Scientific, Hampton, N.J.) at a probe setting of 3. […] The pellet contained <5% of the incorporated sialic acid as determined using a radioactive tracer (data not shown.) The supernatant was therefore considered as the “total homogenate” fraction. A portion (20%) of the “total homogenate” fraction was taken for protein quantification and Sia analysis by DMB derivatization and HPLC analysis (as discussed below.) The remainder was centrifuged at 100,000×g for 1 h. […] All the Sias in these fractions were released with mild acid hydrolysis if necessary and then analyzed by HPLC after DMB derivatization. […]

Caco-2 cells [4] = test: Neu5Gc feeding experiment, Neu5Gc in subcellular fractions by DMB-HPLC; assay type: cell-based, human; conditions: fed 3 mM for 3 days
Description: as §1
Fractionation of the Labeled Cells—Washed cell pellets were sonicated into 500 μL of 20 mM sodium phosphate buffer or 20 mM Tris-HCl, pH 7.5, using 4×15 second pulses of a sonicator cell disrupter, model Some Dismembrator (Fisher Scientific, Hampton, N.J.) at a probe setting of 3. The sonicate was centrifuged at 75×g for 15 min., and the pellet Obtained consisted primarily of nuclei and unbroken cells. The pellet contained <5% of the incorporated sialic acid as determined using a radioactive tracer (data not shown.) The supernatant was therefore considered as the “total homogenate” fraction. A portion (20%) of the “total homogenate” fraction was taken for protein quantification and Sia analysis by DMB derivatization and HPLC analysis (as discussed below.) The remainder was centrifuged at 100,000×g for 1 h. The resulting pellet, called the “membrane” fraction, was then resuspended by sonication (15 sec.) in 200 μl of sodium acetate buffer, pH 5.5. […] All the Sias in these fractions were released with mild acid hydrolysis if necessary and then analyzed by HPLC after DMB derivatization. Protein quantification was performed on the total homogenate, membrane and soluble protein fractions by using the BCA protein assay kit from Pierce (Rockford, Ill.) In some experiments, the resulting data obtained for the Sia bound to the membrane fraction and to the soluble proteins were pooled and presented here as a High Molecular Weight (HMW) fraction. […]

[5] = system: Human neuroblastoma cells; test: Neu5Gc feeding experiment, neuroblastoma cells; assay type: cell-based; conditions: fed 3 mM for 3 days
Description: as §1
Fractionation of the Labeled Cells—Washed cell pellets were sonicated into 500 μL of 20 mM sodium phosphate buffer or 20 mM Tris-HCl, pH 7.5, using 4×15 second pulses of a sonicator cell disrupter, model Some Dismembrator (Fisher Scientific, Hampton, N.J.) at a probe setting of 3. […] The pellet contained <5% of the incorporated sialic acid as determined using a radioactive tracer (data not shown.) The supernatant was therefore considered as the “total homogenate” fraction. A portion (20%) of the “total homogenate” fraction was taken for protein quantification and Sia analysis by DMB derivatization and HPLC analysis (as discussed below.) The remainder was centrifuged at 100,000×g for 1 h. […]

chimpanzee lymphoblasts = test: Neu5Gc/Neu5Ac feeding experiment, chimpanzee lymphoblasts; assay type: cell-based; conditions: chimpanzee lymphoblasts fed 3 mM for 3 days
Caco-2 cells [6] = test: Endocytosis inhibition experiments (Neu5Gc incorporation); assay type: cell-based, human; conditions: Caco-2, 2 h pre-treatment with drug, then 3 mM Neu5Gc
Description: The sonicate was centrifuged at 75×g for 15 min., and the pellet Obtained consisted primarily of nuclei and unbroken cells. […] A portion (20%) of the “total homogenate” fraction was taken for protein quantification and Sia analysis by DMB derivatization and HPLC analysis (as discussed below.) The remainder was centrifuged at 100,000×g for 1 h. The resulting pellet, called the “membrane” fraction, was then resuspended by sonication (15 sec.) in 200 μl of sodium acetate buffer, pH 5.5. The 100,000×g supernatant, called the “soluble” fraction was adjusted to 90% ethanol using absolute ice-cold ethanol, and placed overnight at −20° C. The flocculant precipitate, which represents the “soluble protein” fraction, was washed 3 times with 90%® ice-cold ethanol and then resuspended in 200 μl of water. The supernatant fluid representing the cytosolic low molecular weight (LMW) fraction was dried and brought up in 100 μL with water prior to Sia analysis. All the Sias in these fractions were released with mild acid hydrolysis if necessary and then analyzed by HPLC after DMB derivatization. Protein quantification was performed on the total homogenate, membrane and soluble protein fractions by using the BCA protein assay kit from Pierce (Rockford, Ill.) In some experiments, the resulting data obtained for the Sia bound to the membrane fraction and to the soluble proteins were pooled and presented here as a High Molecular Weight (HMW) fraction. Sialic Acid Release, DMB Derivatization and HPLC Analysis—The bound Sias from the total homogenate, membrane and soluble protein fractions were released using 2M acetic acid hydrolysis, 3 h. at 80° C. The released Sias, or free Sias, contained in the soluble LMW fraction were passed through a Microcon® YM-10 filter (Millipore, Bedford, Mass.) prior to DMB derivatization, which was done according to Hara et al., 1989. […] The eluant was monitored by fluorescence. Quantification of Sias—For all HPLC chromatograms, the quantification of Sias was done by comparison with known quantities of DMB derivatized Neu5Gc and Neu5Ac used as standards and then reported in terms of pmoles of Sia. For total homogenate, membrane and cytosolic protein fractions, this number was expressed per mg of protein. Due to minor sample-to-sample variations in amounts and recoveries, the data in the Figures is presented as percent of Neu5Gc over total Sias, rather than as absolute amounts. Endocytosis Inhibition Experiments—Caco-2 or normal fibroblast cells were split and cultured in alpha-MEM media supplemented respectively with 20% or 15% human serum for 4 days before starting the endocytosis drug inhibition experiments in order to deplete any Neu5Gc derived from FCS. Cells were then pre-treated for 2 h. with the specific inhibitors under the same culture conditions. Fresh media containing the same amount of inhibitor and 3 mM of Neu5Gc was then added to the cells, which were incubated for 16 h or 3 days and finally harvested and fractionated as described above.

[7] = human normal fibroblasts after 3 mM Neu5Gc feeding, 3 days
[8] = human lymphoblasts fed 3 mM for 3 days

## O=C(CO)N[C@@H]1C(O)O[C@H](CO)[C@@H](O)[C@@H]1O (some centres unmarked) [ManNGc, N-glycolylmannosamine]
[1]
  percent of Neu5Gc in membrane-bound glycoconjugates: 19%

## CC(=O)N[C@H]1[C@H]([C@H](O)[C@H](O)CO)OC(O)(C(=O)O)C[C@@H]1O (some centres unmarked) [Neu5Ac, N-acetylneuraminic acid]
[2]; human lymphoblasts fed 3 mM Neu5Ac for 3 days
  Neu5Gc detected in the cells: almost no detectable Neu5Gc
Caco-2 cells [3]
  Neu5Gc (percent of total Sia) in the membrane-bound fraction: almost to zero

## O=C(CO)N[C@H]1[C@H]([C@H](O)[C@H](O)CO)OC(O)(C(=O)O)C[C@@H]1O (some centres unmarked) [Neu5Gc, N-glycolylneuraminic acid]
Caco-2 cells [4]
  Neu5Gc (percent of total Sia), cytosolic low molecular weight (LMW) fraction: 70%
  Neu5Gc (percent of total Sia), high molecular weight fraction (HMW): 46%
  Neu5Gc (percent of total Sia), total homogenate (TH): 58%
[1]; [7]
  Neu5Gc (percent of total Sia), HMW fraction: 39%
  Neu5Gc (percent of total Sia), TH fraction: 28%
  Neu5Gc (percent of total Sia), cytosolic LMW fraction: 41%
[1]
  percent of Neu5Gc in membrane-bound glycoconjugates: 37%
[5]
  Neu5Gc incorporation efficiency: efficiency comparable to the Caco-2 cells
[2]; [8]
  Neu5Gc (percent of total Sia), HMW fraction: 51%
  Neu5Gc (percent of total Sia), LMW cytosolic fraction: 80%
  Neu5Gc (percent of total Sia), TH fraction: 67%
Chimpanzee lymphoblasts; non-fed baseline 57%
  Neu5Gc (percent of total Sia), TH fraction: 70%
Chimpanzee lymphoblasts; non-fed baseline 66%
  Neu5Gc (percent of total Sia), HMW fraction: 72%
Chimpanzee lymphoblasts; non-fed baseline 70%
  Neu5Gc (percent of total Sia), LMW fraction: 84%

## N=C(N)NC(=O)c1nc(Cl)c(N)nc1N [amiloride]
Caco-2 cells [6]
  Neu5Gc incorporation into membrane-bound glycoconjugates in the presence of inhibitor: 10%

## CN(C)CCCN1c2ccccc2Sc2ccc(Cl)cc21 [chlorpromazine]
Caco-2 cells [6]
  Neu5Gc incorporation into membrane-bound glycoconjugates in the presence of inhibitor: 50%

## O=c1c(-c2ccc(O)cc2)coc2cc(O)cc(O)c12 [genistein]
Caco-2 cells [6]
  Neu5Gc incorporation into membrane-bound glycoconjugates in the presence of inhibitor: 34%
  incorporation of Neu5Gc in the TH fraction in the presence of inhibitor: 51%

## C[C@@H]1[C@H](O)[C@@H](C)/C=C/C=C/CC/C=C/C=C/C=C/C=C/C(O[C@H]2O[C@H](C)[C@@H](O)[C@H](N)[C@@H]2O)CC2O[C@](O)(CC(O)C(O)CCC(O)CC(O)CC(O)CC(=O)O[C@H]1C)CC(O)C2C(=O)O (some centres unmarked) [nystatin]
Caco-2 cells [6]
  Neu5Gc incorporation into membrane-bound glycoconjugates in the presence of inhibitor: 44%
  incorporation of Neu5Gc in the TH fraction in the presence of inhibitor: ~65%
